Source: ChEMBL document CHEMBL3885861, “Open TG-GATES”

Organism: Rattus norvegicus
Assay: Open TG-GATES - Regimen: Daily Repeat
Assay type: toxicity, organism-based, Sprague-Dawley
Parameters: regimen Daily Repeat, gender Male, age 6 weeks
Conditions: in vivo, po, 1000 mg/kg, route gavage, dose level High; for APTT / Bas / Eos / Fbg / Hb / Ht / Lym / MCH / MCHC / MCV / Mono / Neu / PT / Plat / RBC / Ret / WBC: tissue Blood; for KIDNEY_L / KIDNEY_R / KIDNEY_TOTAL: tissue Kidney; for LIVER: tissue Liver; for A/G / ALP / ALT / AST / BUN / CRE / Ca / Cl / DBIL / GLC / IP / K / LDH / Na / PL / RALB / TBIL / TC / TG / TP / gamma-GTP: tissue Plasma

SMILES: O=C(N[C@H](CO)[C@H](O)c1ccc([N+](=O)[O-])cc1)C(Cl)Cl [CHLORAMPHENICOL]
- TERMINAL_BW (72 h, time 3 day): 243.9 g
- APTT (72 h, time 3 day): 17 s
- Bas (72 h, time 3 day): 0%
- Eos (72 h, time 3 day): 1.4%
- Fbg (72 h, time 3 day): 313.4 mg/dL
- Hb (72 h, time 3 day): 13.3 g/dL
- Ht (72 h, time 3 day): 40.7%
- Lym (72 h, time 3 day): 87.8%
- MCH (72 h, time 3 day): 21.1 pg
- MCHC (72 h, time 3 day): 32.7%
- MCV (72 h, time 3 day): 64.6 fL
- Mono (72 h, time 3 day): 3.2%
- Neu (72 h, time 3 day): 7%
- PT (72 h, time 3 day): 14.6 s
- Plat (72 h, time 3 day): 109.7 x10_4/uL
- RBC (72 h, time 3 day): 630.6 x10_4/ul
- Ret (72 h, time 3 day): 2.3%
- WBC (72 h, time 3 day): 63.9 x10_2/uL
- KIDNEY_L (72 h, time 3 day): 1.1 g
- KIDNEY_R (72 h, time 3 day): 1.1 g
- KIDNEY_TOTAL (72 h, time 3 day): 2.2 g
- LIVER (72 h, time 3 day): 13.2 g
- A/G (72 h, time 3 day): 0.9
- ALP (72 h, time 3 day): 1258.6 IU/L
- ALT (72 h, time 3 day): 41 IU/L
- AST (72 h, time 3 day): 75 IU/L
- BUN (72 h, time 3 day): 16.6 mg/dL
- CRE (72 h, time 3 day): 0.2 mg/dL
- Ca (72 h, time 3 day): 10.5 mg/dL
- Cl (72 h, time 3 day): 106.8 meq/L
- DBIL (72 h, time 3 day): 0.012 mg/dL
- GLC (72 h, time 3 day): 168.4 mg/dL
- IP (72 h, time 3 day): 6.2 mg/dL
- K (72 h, time 3 day): 4.3 meq/L
- LDH (72 h, time 3 day): 85.6 IU/L
- Na (72 h, time 3 day): 141.6 meq/L
- PL (72 h, time 3 day): 138.6 mg/dL
- RALB (72 h, time 3 day): 2.4 g/dL
- TBIL (72 h, time 3 day): 0.05 mg/dL
- TC (72 h, time 3 day): 72.6 mg/dL
- TG (72 h, time 3 day): 82.6 mg/dL
- TP (72 h, time 3 day): 5.2 g/dL
- gamma-GTP (72 h, time 3 day): 1 IU/L
- TERMINAL_BW ([…], time 7 day): 275.6 g
- TERMINAL_BW ([…], time 14 day): 327.3 g
- TERMINAL_BW ([…], time 28 day): 381.6 g
- APTT ([…], time 7 day): 16.3 s
- Bas ([…], time 7 day): 0%
- Eos ([…], time 7 day): 1%
- Fbg ([…], time 7 day): 339.2 mg/dL
- Hb ([…], time 7 day): 13 g/dL
- Ht ([…], time 7 day): 40%
- Lym ([…], time 7 day): 84.4%
- MCH ([…], time 7 day): 20.6 pg
- MCHC ([…], time 7 day): 32.5%
- MCV ([…], time 7 day): 63.3 fL
- Mono ([…], time 7 day): 2.4%
- Neu ([…], time 7 day): 11.4%
- PT ([…], time 7 day): 14.8 s
- Plat ([…], time 7 day): 126.1 x10_4/uL
- RBC ([…], time 7 day): 631.6 x10_4/ul
- Ret ([…], time 7 day): 4.9%
- WBC ([…], time 7 day): 79.2 x10_2/uL
- APTT ([…], time 14 day): 15.6 s
- Bas ([…], time 14 day): 0%
- Eos ([…], time 14 day): 1%
- Fbg ([…], time 14 day): 325.6 mg/dL
- Hb ([…], time 14 day): 13.9 g/dL
- Ht ([…], time 14 day): 42.9%
- Lym ([…], time 14 day): 87.2%
- MCH ([…], time 14 day): 20.6 pg
- MCHC ([…], time 14 day): 32.3%
- MCV ([…], time 14 day): 63.6 fL
- Mono ([…], time 14 day): 2.8%
- Neu ([…], time 14 day): 8.4%
- PT ([…], time 14 day): 14.9 s
- Plat ([…], time 14 day): 116.9 x10_4/uL
- RBC ([…], time 14 day): 675.6 x10_4/ul
- Ret ([…], time 14 day): 4.4%
- WBC ([…], time 14 day): 86.3 x10_2/uL
- APTT ([…], time 28 day): 16.3 s
- Bas ([…], time 28 day): 0%
- Eos ([…], time 28 day): 1.2%
- Fbg ([…], time 28 day): 303 mg/dL
- Hb ([…], time 28 day): 14.6 g/dL
- Ht ([…], time 28 day): 42.8%
- Lym ([…], time 28 day): 87.4%
- MCH ([…], time 28 day): 19.6 pg
- MCHC ([…], time 28 day): 34.1%
- MCV ([…], time 28 day): 57.3 fL
- Mono ([…], time 28 day): 1.6%
- Neu ([…], time 28 day): 9.2%
- PT ([…], time 28 day): 15.5 s
- Plat ([…], time 28 day): 106.7 x10_4/uL
- RBC ([…], time 28 day): 746.4 x10_4/ul
- Ret ([…], time 28 day): 1.7%
- WBC ([…], time 28 day): 78.6 x10_2/uL
- KIDNEY_L ([…], time 7 day): 1.2 g
- KIDNEY_R ([…], time 7 day): 1.2 g
- KIDNEY_TOTAL ([…], time 7 day): 2.4 g
- KIDNEY_L ([…], time 14 day): 1.4 g
- KIDNEY_R ([…], time 14 day): 1.3 g
- KIDNEY_TOTAL ([…], time 14 day): 2.7 g
- KIDNEY_L ([…], time 28 day): 1.6 g
- KIDNEY_R ([…], time 28 day): 1.6 g
- KIDNEY_TOTAL ([…], time 28 day): 3.2 g
- LIVER ([…], time 7 day): 15.2 g
- LIVER ([…], time 14 day): 18.1 g
- LIVER ([…], time 28 day): 20.9 g
- A/G ([…], time 7 day): 0.9
- ALP ([…], time 7 day): 1416.6 IU/L
- ALT ([…], time 7 day): 50.6 IU/L
- AST ([…], time 7 day): 77.4 IU/L
- BUN ([…], time 7 day): 15.8 mg/dL
- CRE ([…], time 7 day): 0.2 mg/dL
- Ca ([…], time 7 day): 11.2 mg/dL
- Cl ([…], time 7 day): 105.4 meq/L
- DBIL ([…], time 7 day): 0.012 mg/dL
- GLC ([…], time 7 day): 179.4 mg/dL
- IP ([…], time 7 day): 8.8 mg/dL
- K ([…], time 7 day): 4.1 meq/L
- LDH ([…], time 7 day): 92.8 IU/L
- Na ([…], time 7 day): 143.6 meq/L
- PL ([…], time 7 day): 136.2 mg/dL
- RALB ([…], time 7 day): 2.7 g/dL
- TBIL ([…], time 7 day): 0.052 mg/dL
- TC ([…], time 7 day): 67.8 mg/dL
- TG ([…], time 7 day): 71.8 mg/dL
- TP ([…], time 7 day): 5.8 g/dL
- gamma-GTP ([…], time 7 day): 1 IU/L
- A/G ([…], time 14 day): 0.9
- ALP ([…], time 14 day): 1573.2 IU/L
- ALT ([…], time 14 day): 50.6 IU/L
- AST ([…], time 14 day): 72.6 IU/L
- BUN ([…], time 14 day): 17.8 mg/dL
- CRE ([…], time 14 day): 0.2 mg/dL
- Ca ([…], time 14 day): 11 mg/dL
- Cl ([…], time 14 day): 105.6 meq/L
- DBIL ([…], time 14 day): 0.016 mg/dL
- GLC ([…], time 14 day): 179.2 mg/dL
- IP ([…], time 14 day): 7.2 mg/dL
- K ([…], time 14 day): 4.1 meq/L
- LDH ([…], time 14 day): 53.6 IU/L
- Na ([…], time 14 day): 144 meq/L
- PL ([…], time 14 day): 149.8 mg/dL
- RALB ([…], time 14 day): 2.7 g/dL
- TBIL ([…], time 14 day): 0.046 mg/dL
- TC ([…], time 14 day): 71.4 mg/dL
- TG ([…], time 14 day): 79.2 mg/dL
- TP ([…], time 14 day): 5.7 g/dL
- gamma-GTP ([…], time 14 day): 1 IU/L
- A/G ([…], time 28 day): 0.9
- ALP ([…], time 28 day): 936.8 IU/L
- ALT ([…], time 28 day): 43.6 IU/L
- AST ([…], time 28 day): 72.8 IU/L
- BUN ([…], time 28 day): 17 mg/dL
- CRE ([…], time 28 day): 0.2 mg/dL
- Ca ([…], time 28 day): 10.4 mg/dL
- Cl ([…], time 28 day): 105.8 meq/L
- DBIL ([…], time 28 day): 0.016 mg/dL
- GLC ([…], time 28 day): 164.4 mg/dL
- IP ([…], time 28 day): 6.3 mg/dL
- K ([…], time 28 day): 3.6 meq/L
- LDH ([…], time 28 day): 53.4 IU/L
- Na ([…], time 28 day): 145.2 meq/L
- PL ([…], time 28 day): 131.6 mg/dL
- RALB ([…], time 28 day): 2.6 g/dL
- TBIL ([…], time 28 day): 0.06 mg/dL
- TC ([…], time 28 day): 57.8 mg/dL
- TG ([…], time 28 day): 74.8 mg/dL
- TP ([…], time 28 day): 5.6 g/dL
- gamma-GTP ([…], time 28 day): 1 IU/L
